Data set [1] addresses T1, boron transporter (BOR1) BOR1-GFP fusion protein (Arabidopsis thaliana, UniProt Q8VYR7).
T1 construct: made in house; host or cells: Saccharomyces cerevisiae FGY217
Put plainly: solubilization (extraction) of BOR1-GFP fusion protein from membranes. To be noted: amphipathic compound at 1.0 wt %. How it is done:
The ability of PSAs and PSEs to solubilize membrane proteins and to stabilize the structures of membrane proteins was evaluated using boron transporter (BOR1), a membrane protein. BOR1 was isolated from Arabidopsis thaliana, and was expressed in the form of a fusion protein having a GFP tag at the C-terminus in Saccharomyces cerevisiae FGY217 cells. This fusion protein has been proven to have boron transporting activity and is therefore involved in both structural and functional analysis of membrane proteins.
The ability of amphipathic compound PSAs and PSEs to solubilize the boron transporter (BOR1) membrane protein was evaluated.
Specifically, membranes containing BOR1-GFP fusion proteins were treated with an existing amphipathic compound (DDM), PSAs (PSA-C9, PSA-C10 and PSA-C11), or PSEs (PSE-C9, PSE-C11 and PSE-C13) at a concentration of 1.0 wt %. The solubilization efficiencies of PSA-C9, PSA-C10 and PSE-C9 were about 80% similar to the solubilization efficiency of DDM. In particular, the BOR1-GFP protein was quantitatively extracted (˜100%) using PSE-C11 having medium length chains, thus confirming that PSE-C11 is particularly useful for solubilization of BOR1-GFP.
(§1) Specifically, Arabidopsis thaliana-derived BOR1 was expressed in the form of a fusion protein having a GFP tag at the C-terminus in Saccharomyces cerevisiae FGY217 cells. The cells were grown in an URA-medium supplemented with 0.1% glucose. 2% galactose was added to the cell culture to induce protein expression and the cells were cultured at 20° C. for 18 hours (see Drew, D. et al., Nat. Protoc. 2008, 3, 784-798.). After culture, the cells were harvested and used to obtain the cell membranes (see Leung, J. et al., Protein Expr. Purif. 2010, 72, 139-146.). Membranes containing BOR1-GFP fusion proteins were diluted to a final total protein concentration of 2.8 mg/mL in PBS (pH7.4) supplemented with 1 wt % DDM, 1 wt % PSAs (PSA-C9, PSA-C10 or PSA-C11) or 1 wt % PSEs (PSE-C9, PSE-C11 or PSE-C13). The diluted samples were incubated at 4° C. for 1 hour with gentle shaking, and insoluble substances were removed by centrifugation at 14,000 g for 1 hour at 4° C. Supernatants containing the dissolved protein samples were incubated for 10 minutes at the specified temperature (35, 40, 45 or 50° C.), and strongly agglutinated proteins were removed by centrifugation at 14,000 g for 10 minutes at 4° C. 200 μL aliquots were taken from the supernatant and injected into a Superose 6 10/300 column equilibrated with 20 mM Tris-HCl (pH 7.5), 150 mM NaCl and 0.03% DDM. Each elution fraction was collected from a retention volume of 6.4 mL (i.e., after 6.4 mL of solution had passed), and added to a well of a clear bottom 96-well plate at a volume of 200 μL. GFP fluorescence generated in each fraction was measured using an excitation wavelength of 470 nm and an emission wavelength of 512 nm.

Data set [2] in a line: critical micelle concentration (CMC) by hydrophobic fluorescent staining with diphenylhexatriene (DPH). It is filed as physicochemical. The source says:
Methods of measuring CMC are not particularly limited, and methods widely known in the art may be used. For example, a fluorescence staining method using diphenylhexatriene (DPH) may be used.
To characterize PSAs of Preparation Examples 1 to 3 synthesized according to the synthetic method of Example 1; PSEs of Preparation Examples 4 to 7 synthesized according to the synthetic method of Example 2; TPS-Es and TPS-ELs of Preparation Examples 8 to 14 synthesized according to the synthetic method of Example 3; and TPS-As of Preparation Examples 15 to 17 synthesized according to the synthetic method of Example 4, the critical micellar concentrations (CMCs) of PSAs, PSEs and TPSs and the hydrodynamic radii (Rh) of formed micelles were measured.
(§2) Specifically, critical micellar concentrations (CMCs) were measured using hydrophobic fluorescent staining and diphenylhexatriene (DPH), and the hydrodynamic radii (Rh) of micelles formed by each compound at a concentration of 1.0 wt % were measured using dynamic light scattering (DLS). The results were compared with results obtained from an existing amphipathic molecule (detergent), DDM, and are shown in Table 1.

Data set [3] addresses T1, boron transporter (BOR1) BOR1-GFP fusion protein. Put plainly: structural (thermal) stability of solubilized BOR1-GFP by fluorescence-based size exclusion chromatography (FSEC). Conditions: heated at 40° C. for 10 minutes, 1 wt % compound. The protocol: The ability of PSAs or PSEs to stabilize the structure of boron transporter (BOR1) was measured in an aqueous solution. That is, the BOR1 protein solubilized in each amphipathic compound was denatured by heating, and then structural stability of BOR1 was measured using fluorescence-based size exclusion chromatography (FSEC).
as §1

The target in data set [4] is T2, Salmonella typhimurium melibiose permease (MelB) (Salmonella typhimurium, UniProt P30878).
T2 construct: made in house; host or cells: DW2 cells (melB and lacZY), Salmonella typhimurium DW2; plasmid pK95AHB/WT MelBst/CH10
T2 sequence (P30878 whole entry): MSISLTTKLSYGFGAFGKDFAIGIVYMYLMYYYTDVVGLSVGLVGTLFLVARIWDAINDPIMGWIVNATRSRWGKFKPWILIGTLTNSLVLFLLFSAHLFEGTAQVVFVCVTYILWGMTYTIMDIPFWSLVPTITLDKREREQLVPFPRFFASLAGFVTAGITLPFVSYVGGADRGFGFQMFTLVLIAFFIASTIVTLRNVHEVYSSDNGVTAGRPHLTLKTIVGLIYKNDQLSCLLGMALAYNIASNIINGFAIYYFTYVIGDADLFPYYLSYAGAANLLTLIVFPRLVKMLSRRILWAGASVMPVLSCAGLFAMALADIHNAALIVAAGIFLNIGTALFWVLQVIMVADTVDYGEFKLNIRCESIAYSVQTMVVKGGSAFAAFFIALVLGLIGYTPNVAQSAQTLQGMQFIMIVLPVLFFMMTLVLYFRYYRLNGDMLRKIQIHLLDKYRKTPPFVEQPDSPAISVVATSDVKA
Put plainly: MelB extraction efficiency and thermal stability by SDS-PAGE and western immunoblotting. To be noted: 1.5 wt %, 0° C., 90 minutes (similar results at 45° C.). How it is done:
The ability of PSAs or PSEs to extract (solubilize) MelBst (Salmonella typhimurium melibiose permease) proteins and stabilize the structures thereof was measured. MelB proteins were extracted using PSAs, PSEs or DDM, and the amount of the extracted proteins and structural stability thereof were quantitatively analyzed by SDS-PAGE and western immunoblotting. The protein extraction efficiency and thermally stabilizing ability of the amphipathic compounds were simultaneously evaluated by extracting MelB proteins at four temperatures (0, 45, 55 or 65° C.) for 90 minutes using the amphipathic compounds at a concentration of 1.5 wt %.
Specifically, according to the method described in the journal article (P. S. Chae, et al., Chemistry. 2013, 19, 15645-15651.) published by the present inventors, proteins (MelBst) were produced using a plasmid pK95AHB/WT MelBst/CH10 containing a gene construct encoding wild-type MelB having 10×His tags at the C-terminus and Salmonella typhimurium DW2 cells (melB and lacZY). According to the method described in the journal article (A. S. Ethayathulla et al., Nat. Commun. 2014, 5, 3009), cells were cultured and the cell membranes were obtained from the cultured cells. Protein analysis was performed using a Micro BCA kit (Thermo Scientific, Rockford, Ill.). To measure solubilization/stability, membrane samples (the final concentration of membrane proteins was 10 mg/mL) containing MelBst were mixed with a solubilization buffer solution (20 mM sodium phosphate, pH 7.5, 200 mM NaCl, 10% glycerol and 20 mM melibiose) containing DDM, PSAs (PSA-C11) or PSEs (PSE-C9, PSE-C11, PSE-C13) at a concentration of 1.5% (w/v). Extracts were incubated at four different temperatures (0, 45, 55 and 65° C.) for 90 minutes. Fractions were removed by ultracentrifugation at 355,590 g for 45 minutes using a Beckman Optima™ MAX ultracentrifuge equipped with a No. 4 TLA-100 rotor. 20 μg of proteins was separated using a 15% SDS-PAGE gel. Next, immunoblotting was performed using Penta-His-HRP antibodies (Qiagen, Germantown, Md.). After performing SDS-PAGE and immunoblotting, the amount of solubilized MelB was quantitated and expressed as a percentage of the amount of MelB measured in the control group.

Data set [5] in a line: hydrodynamic radius of micelles by dynamic light scattering (DLS). It is filed as physicochemical. To be noted: compound at 1.0 wt %. How it is done:
Methods of measuring the radius of micelles are not particularly limited, and methods widely known in the art may be used. For example, dynamic light scattering (DLS) may be used.
as §2
When measuring, each of PSAs, PSEs and TPSs was used at a concentration of 1.0 wt %.

As to `CCCCCCCCCOCC(COCCCCCCCCC)O[C@@H]1OC(CO[C@@H]2OC(CO)[C@@H](O)C(O)C2O)[C@@H](O[C@@H]2OC(CO)[C@@H](O)C(O)C2O)C(O[C@@H]2OC(CO)[C@@H](O)C(O)C2O)C1O[C@@H]1OC(CO)[C@@H](O)C(O)C1O` (stereo partly drawn) [PSE-C9], the “solubilization efficiency of BOR1-GFP” value in data set [1] is recorded as “about 80%”. In addition, in data set [2], the “CMC” value is given as ~0.026 mM and the “CMC (wt %)” value is listed as ~0.0030 wt %. In addition, the “structural stability of solubilized BOR1-GFP after heating (RFU, FSEC)” value in data set [3] was “greatly improved compared to DDM”. Moreover, the MelB extraction efficiency entry in data set [4] is “extracted at an efficiency similar to the efficiency observed in the case of DDM”. The “Rh (nm), hydrodynamic radius of micelles” value in data set [5] was determined as 3.19 ± 0.04 nm.
As for `CCCCCCCCCC(CCCCCCCCC)CO[C@@H]1OC(CO[C@@H]2OC(CO)[C@@H](O)C(O)C2O)[C@@H](O[C@@H]2OC(CO)[C@@H](O)C(O)C2O)C(O[C@@H]2OC(CO)[C@@H](O)C(O)C2O)C1O[C@@H]1OC(CO)[C@@H](O)C(O)C1O` (stereo partly drawn) [PSA-C9], the “solubilization efficiency of BOR1-GFP” value in data set [1] is reported as “about 80%”. Moreover, in data set [2], the “CMC” value is listed as ~0.014 mM and the “CMC (wt %)” value is reported as ~0.0016 wt %. Further, the “Rh (nm), hydrodynamic radius of micelles” value in data set [5] came to 2.94 ± 0.05 nm.
As to `CCCCCCCCCCC(CCCCCCCCCC)CO[C@@H]1OC(CO[C@@H]2OC(CO)[C@@H](O)C(O)C2O)[C@@H](O[C@@H]2OC(CO)[C@@H](O)C(O)C2O)C(O[C@@H]2OC(CO)[C@@H](O)C(O)C2O)C1O[C@@H]1OC(CO)[C@@H](O)C(O)C1O` (stereo partly drawn) [PSA-C10], the “solubilization efficiency of BOR1-GFP” value in data set [1] is reported as “about 80%”. For the same molecule, in data set [2], the “CMC” value is ~0.009 mM and the “CMC (wt %)” value was ~0.0010 wt %. Besides, in data set [3], the “structural stability of solubilized BOR1-GFP after heating (RFU, FSEC)” value is “remarkably improved as compared to DDM and PSA-C9”. In data set [5], the “Rh (nm), hydrodynamic radius of micelles” value came to 3.10 ± 0.05 nm.

(Values after patent publication US20190169218A1, “AMPHIPATHIC COMPOUND HAVING NOVEL PENTA-SACCHARIDE HYDROPHILIC GROUP AND USE THEREOF” (Industry-University Cooperation Foundation Hanyang …, priority 2016, published 2019).)
